Consider 20 compounds from patent US8129368B2, “5,6-dihydro-1H-pyridin-2-one compounds” (priority 2008, dated 2012).

Like-named read-outs stand apart in the source and are kept apart here.

This assay deals with HCV Huh-luc/neo-ET replicon cells. Description: Luciferase-Based HCV Replicon Assay (EC50 (1b)). Type of assay: cell-based. As to conditions: Hepatitis C virus. As for the experimental part:
Luciferase-Based HCV Replicon Assay Protocol (EC50 (1b))
The cell culture component of the assay is performed essentially as described by Bartenschlager et al., Hepatology 2002, 35, 694-703, wherein exponentially growing HCV Huh-luc/neo-ET replicon cells were seeded at 6×10^3 cells/well in 96 well assay plate. 24 hours later the cells were treated with various concentrations of compound or combination of compounds in triplicate using both fixed ratios and checkerboard matrices of test agents and cultured for 72 hours. The luciferase activity in the wells was determined using Bright-Glo reagent (Promega, Madison, Wis.) with a luminometer (Wallac 1420 Multilabel HTS Counter Victor 2). The background control was replicon cells treated with 100 nM BILN-2061, an inhibitor of the HCV protease. % Inhibition was determined for each compound concentration in relation to the negative (no compound) control to calculate the EC50(1b).
On the technique in general: Replicon systems follow genome replication, usually without infectious particles.

Setting [1] is: HCV Huh-luc/neo-ET replicon cells, 72 hours, luciferase activity, read-out: EC50 (1b).
The mark [2] stands for this setting: HCV Huh-luc/neo-ET replicon cells, 72 hours, luciferase activity, read-out: EC50(1b) concentration.
[3] abbreviates: Huh-luc/neo-ET, 72 h, read-out: EC50 (1b).
Where [4] appears, read: Huh-luc/neo-ET, 72 h, read-out: EC50(1b) concentration.

`CS(=O)(=O)Nc1ccc2c(c1)S(=O)(=O)NC(C1=C(O)[C@@H]3[C@@H]4CC[C@@H](C4)[C@@H]3N(CC3(C(F)(F)F)CC3)C1=O)=N2` [Example 22, N-{3-[(1S,2S,7R,8R)-6-Hydroxy-4-oxo-3-(1-trifluoromethyl-cyclopropylmethyl)-3-aza-tricyclo[6.2.1.0^2,7]undec-5-en-5-yl]-1,1-dioxo-1,2-dihydro-1λ^6-benzo[1,2,4]thiadiazin-7-yl}-methanesulfonamide]: the EC50 under setting [1] lay within 5 to 25 nM and the EC50 under setting [2] is less than 25 nM.

As to `CS(=O)(=O)Nc1ccc2c(c1)S(=O)(=O)N=C(C1=C(O)[C@@H]3C4CCC(CC4)[C@@H]3N(Cc3ccc(F)c(F)c3)C1=O)N2` [Example 10, N-{3-[(2S,7R)-3-(3,4-Difluoro-benzyl)-6-hydroxy-4-oxo-3-aza-tricyclo[6.2.2.0^2,7]dodec-5-en-5-yl]-1,1-dioxo-1,4-dihydro-1λ^6-benzo[1,2,4]thiadiazin-7-yl}-methanesulfonamide], the EC50 is, setting by setting: under setting [1], less than 5 nM; under setting [2], less than 25 nM.

Turning to `CS(=O)(=O)Nc1ccc2c(c1)S(=O)(=O)NC(C1=C(O)[C@@H]3[C@@H]4CC[C@@H](C4)[C@@H]3N(Cc3ccccc3)C1=O)=N2` [Example 20], the EC50 reads like this: under setting [3], 5 to 25 nM; under setting [4], less than 25 nM.

In the case of `CS(=O)(=O)Nc1ccc2c(c1)S(=O)(=O)NC(C1=C(O)[C@@H]3C4CCC(CC4)[C@@H]3N(Cc3cccs3)C1=O)=N2` [Example 16, N-{3-[(2S,7R)-6-Hydroxy-4-oxo-3-thiophen-2-ylmethyl-3-aza-tricyclo[6.2.2.0^2,7]dodec-5-en-5-yl]-1,1-dioxo-1,2-dihydro-1λ^6-benzo[1,2,4]thiadiazin-7-yl}-methanesulfonamide], the EC50 by setting is: under setting [1], 5 to 25 nM; under setting [2], less than 25 nM.

For `CS(=O)(=O)Nc1ccc2c(c1)S(=O)(=O)NC(C1=C(O)[C@@H]3[C@@H]4CC[C@@H](C4)[C@@H]3N(Cc3cccc(F)c3)C1=O)=N2` [Example 30], the EC50 is 5 to 25 nM under setting [1] and less than 25 nM under setting [2].

Turning to `CS(=O)(=O)Nc1ccc2c(c1)S(=O)(=O)N=C(C1=C(O)[C@@H]3C4CCC(CC4)[C@@H]3N(Cc3ccc(F)cc3F)C1=O)N2` [Example 4, N-{3-[(2S,7R)-3-(2,4-Difluoro-benzyl)-6-hydroxy-4-oxo-3-aza-tricyclo[6.2.2.0^2,7]dodec-5-en-5-yl]-1,1-dioxo-1,4-dihydro-1λ^6-benzo[1,2,4]thiadiazin-7-yl}-methanesulfonamide], the EC50 under setting [1] is less than 5 nM and the EC50 under setting [2] was less than 25 nM.

In the case of `CS(=O)(=O)Nc1ccc2c(c1)S(=O)(=O)NC(C1=C(O)[C@@H]3C4CCC(CC4)[C@@H]3N(Cc3ccccc3)C1=O)=N2` [Example 12, N-{3-[(2S,7R)-3-Benzyl-6-hydroxy-4-oxo-3-aza-tricyclo[6.2.2.0^2,7]dodec-5-en-5-yl]-1,1-dioxo-1,2-dihydro-1λ^6-benzo[1,2,4]thiadiazin-7-yl}-methanesulfonamide], the EC50 was less than 5 nM under setting [1] and less than 25 nM under setting [2].

As for `CS(=O)(=O)Nc1ccc2c(c1)S(=O)(=O)NC(C1=C(O)[C@@H]3C4CCC(CC4)[C@@H]3N(Cc3cc(F)c(F)cc3F)C1=O)=N2` [Example 26], the EC50 by setting is: under setting [1], 5 to 25 nM; under setting [2], less than 25 nM.

`CS(=O)(=O)Nc1ccc2c(c1)S(=O)(=O)NC(C1=C(O)[C@@H]3[C@H]4CC[C@H](C4)[C@@H]3N(Cc3cccc(F)c3)C1=O)=N2` [Example 21, N-{3-[(1R,2S,7R,8S)-3-(3-Fluoro-benzyl)-6-hydroxy-4-oxo-3-aza-tricyclo[6.2.1.0^2,7]undec-5-en-5-yl]-1,1-dioxo-1,2-dihydro-1λ^6-benzo[1,2,4]thiadiazin-7-yl}-methanesulfonamide]: the EC50 is 5 to 25 nM under setting [1] and less than 25 nM under setting [2].

For `CS(=O)(=O)Nc1ccc2c(c1)S(=O)(=O)N=C(C1=C(O)[C@@H]3C4CCC(CC4)[C@@H]3N(Cc3ccccc3Br)C1=O)N2` [Example 6, N-{3-[(2S,7R)-3-(2-Bromo-benzyl)-6-hydroxy-4-oxo-3-aza-tricyclo[6.2.2.0^2,7]dodec-5-en-5-yl]-1,1-dioxo-1,4-dihydro-1λ^6-benzo[1,2,4]thiadiazin-7-yl}-methanesulfonamide], the EC50 by setting is: under setting [1], less than 5 nM; under setting [2], less than 25 nM.

Consider `CS(=O)(=O)Nc1ccc2c(c1)S(=O)(=O)N=C(C1=C(O)[C@@H]3C4CCC(CC4)[C@@H]3N(Cc3ccc(F)c(Cl)c3)C1=O)N2` [Example 8, N-{3-[(2S,7R)-3-(3-Chloro-4-fluoro-benzyl)-6-hydroxy-4-oxo-3-aza-tricyclo[6.2.2.0^2,7]dodec-5-en-5-yl]-1,1-dioxo-1,4-dihydro-1λ^6-benzo[1,2,4]thiadiazin-7-yl}-methanesulfonamide], for which the EC50 by setting is: under setting [1], less than 5 nM; under setting [2], less than 25 nM.

For `CS(=O)(=O)Nc1ccc2c(c1)S(=O)(=O)NC(C1=C(O)[C@@H]3C4CCC(CC4)[C@@H]3N(CC3CCCCC3)C1=O)=N2` [Example 15, N-{3-[(2S,7R)-3-Cyclohexylmethyl-6-hydroxy-4-oxo-3-aza-tricyclo[6.2.2.0^2,7]dodec-5-en-5-yl]-1,1-dioxo-1,2-dihydro-1λ^6-benzo[1,2,4]thiadiazin-7-yl}-methanesulfonamide], the EC50 under setting [1] lay within 5 to 25 nM and the EC50 under setting [2] is less than 25 nM.

For the compound `CS(=O)(=O)Nc1ccc2c(c1)S(=O)(=O)NC(C1=C(O)C3C4CC(C5CC54)C3N(Cc3ccc(F)cc3)C1=O)=N2` (racemic) [Example 13, (rac-di-exo,di-exo)-N-{3-[3-(4-Fluoro-benzyl)-6-hydroxy-4-oxo-3-aza-tetracyclo[6.3.1.0^2,7.0^9,11]dodec-5-en-5-yl]-1,1-dioxo-1,2-dihydro-1λ^6-benzo[1,2,4]thiadiazin-7-yl}-methanesulfonamide], the EC50 runs as follows: under setting [1], less than 5 nM; under setting [2], less than 25 nM.

With `CS(=O)(=O)Nc1ccc2c(c1)S(=O)(=O)NC(C1=C(O)[C@@H]3[C@H]4CC[C@H](C4)[C@@H]3N(CC3CCCCC3)C1=O)=N2` [Example 28], the EC50 is 5 to 25 nM under setting [1] and less than 25 nM under setting [2].

As for `CS(=O)(=O)Nc1ccc2c(c1)S(=O)(=O)NC(C1=C(O)[C@@H]3[C@H]4CC[C@H](C4)[C@@H]3N(Cc3cccs3)C1=O)=N2` [Example 27, N-{3-[(1R,2S,7R,8S)-6-Hydroxy-4-oxo-3-thiophen-2-ylmethyl-3-aza-tricyclo[6.2.1.0^2,7]undec-5-en-5-yl]-1,1-dioxo-1,2-dihydro-1λ^6-benzo[1,2,4]thiadiazin-7-yl}-methanesulfonamide], the EC50 by setting is: under setting [1], 5 to 25 nM; under setting [2], less than 25 nM.

Consider `CS(=O)(=O)Nc1ccc2c(c1)S(=O)(=O)NC(C1=C(O)[C@@H]3[C@H]4CC[C@H](C4)[C@@H]3N(Cc3ccsc3)C1=O)=N2` [Example 25, N-{3-[(1R,2S,7R,8S)-6-Hydroxy-4-oxo-3-thiophen-3-ylmethyl-3-aza-tricyclo[6.2.1.0^2,7]undec-5-en-5-yl]-1,1-dioxo-1,2-dihydro-1λ^6-benzo[1,2,4]thiadiazin-7-yl}-methanesulfonamide], for which the EC50 runs as follows: under setting [1], 5 to 25 nM; under setting [2], less than 25 nM.

Take `CC(C)(C)CCN1C(=O)C(C2=NS(=O)(=O)c3cc(NS(C)(=O)=O)ccc3N2)=C(O)[C@@H]2C3CCC(CC3)[C@@H]21` [Example 9, N-{3-[(2S,7R)-3-(3,3-Dimethyl-butyl)-6-hydroxy-4-oxo-3-aza-tricyclo[6.2.2.0^2,7]dodec-5-en-5-yl]-1,1-dioxo-1,4-dihydro-1λ^6-benzo[1,2,4]thiadiazin-7-yl}-methanesulfonamide]: the EC50 reads like this: under setting [1], less than 5 nM; under setting [2], less than 25 nM.

`CS(=O)(=O)Nc1ccc2c(c1)S(=O)(=O)N=C(C1=C(O)[C@@H]3[C@H]4CC[C@H](C4)[C@@H]3N(Cc3ccc(F)cc3Cl)C1=O)N2` [Example 1, (1R,2S,7R,8S)—N-{3-[3-(2-Chloro-4-fluoro-benzyl)-6-hydroxy-4-oxo-3-aza-tricyclo[6.2.1.0^2,7]undec-5-en-5-yl]-1,1-dioxo-1,4-dihydro-1λ^6-benzo[1,2,4]thiadiazin-7-yl}-methanesulfonamide]: the EC50 by setting is: under setting [1], less than 5 nM; under setting [2], less than 25 nM.

Consider `CS(=O)(=O)Nc1ccc2c(c1)S(=O)(=O)NC(C1=C(O)[C@@H]3[C@@H]4CC[C@@H](C4)[C@@H]3N(Cc3ccc(F)c(F)c3)C1=O)=N2` [Example 23, N-{3-[(1S,2S,7R,8R)-3-(3,4-Difluoro-benzyl)-6-hydroxy-4-oxo-3-aza-tricyclo[6.2.1.0^2,7]undec-5-en-5-yl]-1,1-dioxo-1,2-dihydro-1λ^6-benzo[1,2,4]thiadiazin-7-yl}-methanesulfonamide], for which the EC50 under setting [3] lay within 5 to 25 nM and the EC50 under setting [4] is less than 25 nM.

Take `CS(=O)(=O)Nc1ccc2c(c1)S(=O)(=O)NC(C1=C(O)[C@@H]3[C@H]4CC[C@H](C4)[C@@H]3N(Cc3ccc(F)c(F)c3F)C1=O)=N2` [Example 24, N-{3-[(1R,2S,7R,8S)-6-Hydroxy-4-oxo-3-(2,3,4-trifluoro-benzyl)-3-aza-tricyclo[6.2.1.0^2,7]undec-5-en-5-yl]-1,1-dioxo-1,2-dihydro-1λ^6-benzo[1,2,4]thiadiazin-7-yl}-methanesulfonamide]: the EC50 is 5 to 25 nM under setting [1] and less than 25 nM under setting [2].
